{"source": "patent US20120252765A1", "about": "“USE OF […] THE PREPARATION OF A MEDICAMENT FOR THE PREVENTION OF HOSPI[…] HEART FAILURE” (SANOFI, priority 2009, published 2012)", "tested_on": "patients with atrial fibrillation", "test": "partial factorial, double-blind, randomized, multi-center, placebo-controlled trial of irbesartan for prevention of vascular events", "assay_type": "in vivo, human", "description": "Efficacy of irbesartan and its pharmaceutically acceptable salts versus placebo in patients with atrial fibrillation for the prevention of vascular events was provided via irbesartan during a partial factorial, double-blind, randomized, multi-center, placebo-controlled group trial.\nTo be eligible for the trial, patients had to have all of the following: an evidence of atrial fibrillation, an evidence of high risk of vascular events, and a systolic blood pressure of at least 110 mm Hg.\nThe evidence of atrial fibrillation is defined as follows: patient must have either permanent, paroxysmal or persistent atrial fibrillation. Patients in atrial fibrillation at baseline (unless cardiovascular surgery was performed in the previous month) had ECG documented atrial fibrillation at the time of enrollment. Patients not in atrial fibrillation at baseline (i.e. during screening period, between the screening visit and the day of randomization) had ECG documented atrial fibrillation on two separate occasions, at least 2 weeks apart in the six months prior to randomization (and not within one month of cardiovascular surgery).\nThe evidence of high risk of vascular events is defined as follows: at least one of the following risk criteria must be present:\nPatients have been enrolled for over 4 years. Study drug treatment units (placebo or irbesartan) were such that each patient took two tablets of either placebo or 150 mg irbesartan form A, once daily, at night. After an up-titration period of 2 weeks, all patients were up-titrated to 300 mg. They took two tablets of either placebo or 150 mg irbesartan form A, once daily, at night.\nResults were calculated using non-parametric Kaplan-Meier estimate.\nCox's proportional hazard model was used to estimate the hazard ratio also called relative risk.\nRelative risk (RR) is the ratio between the risk of having a hospitalization for heart failure for patients treated with irbesartan and the risk of having a hospitalization for heart failure for patients treated with placebo.\nThe percentage of decrease of an event is calculated as follow: […]"}
{"compound": "CCCCC1=NC2(CCCC2)C(=O)N1Cc1ccc(-c2ccccc2-c2nnn[nH]2)cc1", "note": "[irbesartan, 2-n-butyl-4-spirocyclopentane-1-[(2′-(tetrazol-5-yl)biphenyl-4-yl)methyl]-2-imidazolin-5-one]", "values": [{"measurement": "risk of heart failure hospitalization", "setting": "4518 patients on irbesartan form A up-titrated to 300 mg once daily, Kaplan-Meier estimate, placebo 3.2% per year", "value": 2.7, "unit": "% per year"}, {"measurement": "number of stays in hospital", "setting": "irbesartan group, placebo 4059, p=0.004", "value": 3817}, {"measurement": "days hospitalized for cardiovascular reasons", "setting": "irbesartan group, placebo 39941, p=0.0001", "value": 36480, "unit": "days"}, {"measurement": "decrease of days hospitalized for cardiovascular reasons", "setting": "irbesartan versus placebo", "value": 8.7, "unit": "%"}, {"measurement": "relative risk (hazard ratio) of hospitalization for heart failure", "setting": "irbesartan versus placebo, Cox's proportional hazard model, confidence interval 0.76-0.98, p=0.018", "value": 0.86}, {"measurement": "reduction in the risk of heart failure hospitalization (1-RR)", "setting": "irbesartan versus placebo, p=0.018", "value": 14, "unit": "%"}, {"measurement": "hospitalization for heart failure events", "setting": "number of events in the irbesartan group (4518 patients), placebo 551", "value": 482}, {"measurement": "reduction in the risk of the composite of stroke, non-CVS embolism and transient ischemic attacks", "setting": "post hoc analysis, irbesartan versus placebo, p=0.02", "value": 13, "unit": "%"}, {"measurement": "risk of the composite of stroke, non-CVS embolism and transient ischemic attacks", "setting": "post hoc analysis, placebo 3.4% per year", "value": 2.9, "unit": "% per year"}]}
